The source of these data is paper PMC12281142, “A potent phenylalkylamine disrupts mycobacterial membrane bioenergetics and augments bactericidal activity of bedaquiline” (iScience, 2025).

Assay [1] deals with Mab massiliense CCUG 48898-T. Put plainly: MIC against Mab massiliense CCUG 48898-T. The format is cell-based, Mycobacterium abscessus subsp. massiliense. The note with it: for MIC50 Mab massiliense CCUG 48898-T: 3 days.
A further assay has as its system Mab abscessus ATCC 19977. Put plainly: MIC against Mab abscessus ATCC 19977. The format is cell-based, Mycobacterium abscessus subsp. abscessus. The note with it: for MIC90: read-out: MIC90 Mab abscessus ATCC 19977; for MIC50 Mab abscessus ATCC 19977: 3 days.
The subject of assay [2] is M. bovis BCG. Put plainly: microbe, parasite or virus in culture. The assay is classed as cell-based, Mycobacterium bovis BCG.
The next assay concerns Mtb H37Rv. Put plainly: MIC by broth microdilution against Mtb H37Rv. The assay is classed as cell-based, Mycobacterium tuberculosis. As to conditions: incubation 5 days; for MIC50 Mtb H37Rv: first value of cell MIC50/MIC90.
In the next assay the test system is HepG2. Put plainly: Cytotoxicity in HepG2 cells. As to conditions: 48 h, growth suppressed by 50% vs untreated. The format is cell-based, human. The protocol:
(§1) To each well in a 96-well plate, 50,000 cells in 100 μL media were seeded. Vero E6 and HepG2 cells were incubated overnight in DMEM for cell adherence at 37°C and 5% CO2. The media was removed from the wells and 100 μL solution made up of fresh DMEM media (99 μL) and the test compound (1 μL from a DMSO stock solution that was […] more concentrated than the final concentration in the well) was then added to each well. DMSO content of each well was consistently kept at 0.5 %v/v. Treated plates were incubated for 48 h (5% CO2, 37°C), after which 10 μL of Celltitre 96 Aqueous One Solution was added to each well, without removal of media, and incubated for a further 3 h. Subsequently, absorbance readings were taken at 490 nm on a Tecan GENios Microplate Reader.
(§2) Cell viability was determined from the expression: Cellviability(%)={[Absorbance(cells+cpd)−Absorbance(cpd)]/[Absorbance(cells+vc)−Absorbance(vc)]}×100% where Absorbance (cells + cpd) = absorbance of wells containing cells and test compound in vehicle (media +0.5% DMSO); Absorbance (cpd) = absorbance of wells containing test compound in vehicle without cells (compound control); Absorbance (cells + vc) = absorbance of wells containing cells in vehicle (vc) only (untreated cells); Absorbance (vc) = absorbance of wells containing vehicle without cells (vehicle control). The percentage viability readings were plotted against log(concentration) on GraphPad Prism (Version 7.0, San Diego, CA) to give a sigmoidal curve, from which IC50, defined as the concentration of the compound that reduced cell viability by 50%, was obtained. At least 3 separate determinations were carried out.

For assay [3], the system named is M. bovis BCG. The format is cell-based, Mycobacterium bovis BCG.
Assay [4] relates to M. bovis BCG. The assay is classed as cell-based, Mycobacterium bovis BCG. The source holds these as a separate data set.
The subject of another assay is Vero E6. Put plainly: Cytotoxicity in Vero E6 cells. The assay is classed as cell-based, African green monkey. The note with it: 48 h, growth suppressed by 50% vs untreated. The protocol: as §1, §2
Assay [5] relates to Mab bolletii CCUG 50184-T. Put plainly: MIC against Mab bolletii CCUG 50184-T. The format is cell-based, Mycobacterium abscessus subsp. bolletii. As to conditions: for MIC50 Mab bolletii CCUG 50184-T: 3 days.
For the next assay, the system named is M. bovis BCG-pclgR-RFP. The format is cell-based, Mycobacterium bovis BCG. As to conditions: 0.25x – 2x MIC90 (controls 10 μM), 24 h.
[6] abbreviates: 7H9 medium (first value of cell).
Where [7] appears, read: CA-MHB medium (second value of cell).

pIC50: −log10 of the molar value. ≈ marks a conversion by molar mass, not a printed value. Where “and” joins values, the source holds several entries; their conditions need not be identical. Identical values can stand only once. Like-named read-outs stand apart in the source and are kept apart here.

In the case of `COc1ccc(CCN(C)CCCC(C#N)(CCC2CCCCC2)c2ccc(OC)c(OC)c2)cc1OC` (stereo not shown) [PhA1], the MIC90 is reported as 106 µM (≈ 55.4 µg/mL) in assay [1] (7H9 broth (first value)); 125 µM (≈ 65.3 µg/mL) in [1] (camH broth (second value)); 115 µM (≈ 60.1 µg/mL) in the assay on Mab abscessus ATCC 19977 (7H9 broth (first value)); 54 µM (≈ 28.2 µg/mL) with Mab abscessus ATCC 19977 (camH broth (second value)); 43 µM (≈ 22.5 µg/mL) with Mtb H37Rv (second value of cell MIC50/MIC90, read-out: MIC90 Mtb H37Rv); 109 µM (≈ 57 µg/mL) in assay [5] (7H9 broth (first value)). The MIC90 in [5] (camH broth (second value)) is 61 µM (≈ 31.9 µg/mL). For the same compound, the figures for the “MIC50 Mab massiliense CCUG 48898-T” value in assay [1] (setting [6]) and in assay [1] (setting [7]) were 100 µM (≈ 52.3 µg/mL) and 15 µM (≈ 7.84 µg/mL), respectively. The results for the “MIC50 Mab abscessus ATCC 19977” value in the assay with Mab abscessus ATCC 19977 (setting [6]) and in the assay with Mab abscessus ATCC 19977 (setting [7]) were 76 µM (≈ 39.7 µg/mL) and 25 µM (≈ 13.1 µg/mL), respectively. In the assay with M. bovis BCG [2], the MIC50 was 12 µM (≈ 6.27 µg/mL). In the assay with M. bovis BCG [2], the “MIC50 BCG With Glycerol” value worked out at 12 µM (≈ 6.27 µg/mL). Moreover, the “MIC50 BCG Without Glycerol” value with M. bovis BCG [2] came out at 21 µM (≈ 11 µg/mL). In the assay with M. bovis BCG [2], the “MIC90 (Table S1)” value stood at 25 µM (≈ 13.1 µg/mL). For the same compound, the “MIC50 Mtb H37Rv” value against Mtb H37Rv is 19 µM (≈ 9.93 µg/mL). Further, the pIC50 is 4.47 in the assay on HepG2 and 4.29 with Vero E6. Moreover, the “MBC99.9 (10^3-fold kill)” value against M. bovis BCG [3] turned out to be 4 x MIC90. Also, the “CFUs above the detection limit” value in the assay with M. bovis BCG [4] was 10–100 times. The entries for the “MIC50 Mab bolletii CCUG 50184-T” value in assay [5] (setting [6]) and in [5] (setting [7]) were 97 µM (≈ 50.7 µg/mL) and 22 µM (≈ 11.5 µg/mL), respectively.
In assay [1] (7H9 broth (first value)), `COc1ccc(CCN(C)CCCCCCCCCCC(C#N)(c2ccc(OC)c(OC)c2)C(C)C)cc1OC` (stereo not shown) [PhA9] gave an MIC90 of over 200 µM. For the same compound, in assay [1] (setting [6]), the “MIC50 Mab massiliense CCUG 48898-T” value was 123/– ^e uM. In addition, in the assay with Mab abscessus ATCC 19977 (7H9 broth (first value)), the MIC90 is on record as 190 µM (≈ 105 µg/mL). The “MIC50 Mab abscessus ATCC 19977” value in the assay on Mab abscessus ATCC 19977 (setting [6]) is on record as 74/– ^e uM. Further, in the assay with M. bovis BCG [2], the MIC50 is 11 µM (≈ 6.08 µg/mL), the “MIC50 BCG With Glycerol” value is 11 µM (≈ 6.08 µg/mL), the “MIC50 BCG Without Glycerol” value came to 22 µM (≈ 12.2 µg/mL) and the MIC90 is 22 µM (≈ 12.2 µg/mL). In the assay with M. bovis BCG [2], the “MIC90 (Table S1)” value amounted to 22 µM (≈ 12.2 µg/mL) and the “MIC90 BCG” value amounted to 12 µg/mL (≈ 21.7 µM). This compound gave a negative-log IC50 (pIC50) in the assay with HepG2 of 4.82. For the same compound, in the assay with M. bovis BCG [3], the “MBC99.9 (10^3-fold kill)” value amounted to 2 x MIC90. This compound also gave a negative-log IC50 (pIC50) with Vero E6 of 4.82. For the same compound, the MIC90 in [5] (7H9 broth (first value)) stood at 200 µM (≈ 111 µg/mL). Moreover, the “MIC50 Mab bolletii CCUG 50184-T” value in [5] (setting [6]) is 103/– ^e uM.
Regarding `CCCCCCCCC(C#N)(CCCN(C)CCc1ccc(OC)c(OC)c1)c1ccc(Cl)c(Cl)c1` (stereo not shown) [PhA12], the MIC90 in assay [1] (7H9 broth (first value)) is over 250 µM; in [1] (camH broth (second value)) it was over 250 µM; with Mab abscessus ATCC 19977 (7H9 broth (first value)), over 250 µM; in the assay on Mab abscessus ATCC 19977 (camH broth (second value)) it was over 250 µM; in the assay with M. bovis BCG [2], 29 µM (≈ 15.5 µg/mL); in [5] (7H9 broth (first value)), over 250 µM. In assay [5] (camH broth (second value)), this compound gave an MIC90 of over 250 µM. Further, the “MIC50 Mab massiliense CCUG 48898-T” value in [1] (setting [6]) was over 250 µM; in assay [1] (setting [7]) it was 31 µM (≈ 16.5 µg/mL). For the same compound, the “MIC50 Mab abscessus ATCC 19977” value against Mab abscessus ATCC 19977 (setting [6]) was over 250 µM; with Mab abscessus ATCC 19977 (setting [7]), 194 µM (≈ 104 µg/mL). For the same compound, the MIC50 with M. bovis BCG [2] was determined as 16 µM (≈ 8.54 µg/mL). Also, the “MIC50 BCG Without Glycerol” value with M. bovis BCG [2] came to 35 µM (≈ 18.7 µg/mL). Also, the “MIC90 (Table S1)” value with M. bovis BCG [2] was 29 µM (≈ 15.5 µg/mL). For the same compound, the “MIC90 BCG” value against M. bovis BCG [2] was determined as 16 µg/mL (≈ 30 µM). Further, in the assay with Mtb H37Rv, the “MIC50 Mtb H37Rv” value is reported as 23/46 μM. For the same compound, the “MIC90 Mtb H37Rv” value against Mtb H37Rv is recorded as 23/46 μM. The pIC50 was 4.29 in the assay on HepG2 and 4.16 in the assay with Vero E6. Moreover, the “MBC99.9 (10^3-fold kill)” value in the assay with M. bovis BCG [3] is recorded as 4 x MIC90. The “MIC50 Mab bolletii CCUG 50184-T” value in [5] (setting [6]) was over 250 µM; in assay [5] (setting [7]), 72 µM (≈ 38.4 µg/mL).
In the case of `CO[C@H]1/C=C/O[C@@]2(C)Oc3c(C)c(O)c4c(O)c(c(/C=N/N5CCN(C)CC5)c(O)c4c3C2=O)NC(=O)/C(C)=C\C=C\[C@H](C)[C@H](O)[C@@H](C)[C@@H](O)[C@@H](C)[C@H](OC(C)=O)[C@@H]1C` [RIF, rifampin, reference compound], the MIC90 in the assay on M. bovis BCG [2] (Mycobacterium tuberculosis variant bovis BCG, BCG, read-out: MIC90 BCG) is 0.04 µM and 0.033 µg/mL. For the same compound, the “induction of pclgR promoter activity” value with M. bovis BCG-pclgR-RFP was “No induction”.
